Where a name gives a salt, the structure may show the parent alone. Read-outs that look alike come from different tables or passages of the source.
Experiments:
Format in all cases: cell-based
[1] = system: HCV genotype 1a H77 NS3-5B bicistronic subgenomic replicon; assay: microbe, parasite or virus in culture; details: Hepatitis C virus, luciferase activity after 48 hours, read-out: HCV Genotype 1A Replicon EC50
Text: (§1) Two cell lines were used for screening of compounds for inhibiting HCV RNA replication (genoytype 1a and 1b). Genotype la replicon cells, are a Huh-7 derived cell line bearing the genotype 1a H77NS3-5B bicistronic subgenomic replicon. See, Blight, et al., J. Virol. (2003) 77(5): 3181-3190.
(§2) The genotype 1a replicon contains several adaptive mutations (NS4B Q31H, NS5A K68R, NS5A S232I), the luciferase gene and encodes for neomycin resistance. The genotype 1b replicon, also referred to as the ET replicon, is stably transfected with RNA transcripts harboring a I389luc-ubi-neo/NS3-3′/ET replicon with firefly luciferase-ubiquitin-neomycin phosphotransferase fusion protein and EMCV-IRES driven NS3-5B polyprotein containing the cell culture adaptive mutations (E1202G; T12801; K1846T) See, Kreiger, et al., Journal of Virology 75:4614-4624 (2001). Both cell lines were grown in DMEM, supplemented with 10% fetal calf serum, 2 mM Glutamine, Penicillin (100 IU/mL)/Streptomycin (100 μg/mL), 1×nonessential amino acids, and 250 μg/mL G418 (“Geneticin”). They were all available through Life Technologies (Bethesda, Md.). The cells were plated at 0.5×10^4 cells/well in 384 well plates containing compounds. The final concentration of compounds ranged between 0.1 nM to 50 μM and the final DMSO concentration of 0.5%.
(§3) Luciferase activity was measured 48 hours later by adding a Steady glo (Promega, Madison, Wis.). Percent inhibition of replication data was plotted relative to no compound control. Under the same condition, cytotoxicity of the compounds was determined using cell titer glo (Promega, Madison, Wis.). EC50 values were determined from a 10 point dose response curve using 2-4 fold serial dilutions for each compound, which spans a concentration range of at least a 1000 fold. Replicon EC50 values, the concentration of compound required to inhibit 50% of the assay response, were calculated by curve fitting data to the Hill equation, using a non-linear least-squares curve-fitting program. The software tested the data for quality and rejected compounds with high and low activity before fitting the equation below.
(§4) Analysis was performed using an XC50 module and BioAssay Enterprise (Cambridge Soft).

[2] = system: HCV genotype 1b replicon (ET replicon); assay: microbe, parasite or virus in culture; details: Hepatitis C virus, luciferase activity after 48 hours, read-out: HCV Genotype 1B Replicon EC50
Text: as §1, §2, §3, §4

in vitro = details: human; Table 3; cytotoxicity, cell titer glo, same condition as replicon assay; read-out: HCV Genotype 1B CC50
Text: as §2, §3

Compound	EC50 ([1]; Table 3)	EC50 ([2]; Table 3)	CC50 (in vitro)	EC50 ([1]; Table 2)	EC50 ([2]; Table 2)
O=C(OCCCO)C(c1cc(-c2ccc(C3CC3)cc2C(F)(F)F)no1)n1cc2nc(-c3cccc(F)c3F)nc-2cn1 (stereo not shown) [Compound 182, 3-Hydroxypropyl {3-[4-cyclopropyl-2-(trifluoromethyl)phenyl]-5-isoxazolyl}[2-(2,3-difluorophenyl)-5H-imidazo[4,5-d]pyridazin-5-yl]acetate]	63 nM	13 nM	> 50000 nM	–	–
O=C(OCCCOP(=O)(O)O)C(c1cc(-c2ccc(C3CC3)cc2C(F)(F)F)no1)n1cc2nc(-c3cccc(F)c3F)nc-2cn1 (stereo not shown) [Compound 186, 3-(phosphonooxy)propyl {3-[4-cyclopropyl-2-(trifluoromethyl)phenyl]-5-isoxazolyl}[2-(2,3-difluorophenyl)-5H-imidazo[4,5-d]pyridazin-5-yl]acetate]	79 nM	10 nM	50000 nM	–	–
COC(=O)C(c1cc(-c2ccc(C3CC3)cc2C(F)(F)F)no1)n1cc2nc(-c3cccc(F)c3F)nc-2cn1 (stereo not shown) [Compound 178, Methyl {3-[4-cyclopropyl-2-(trifluoromethyl)phenyl]-5-isoxazolyl}[2-(2,3-difluorophenyl)-5H-imidazo[4,5-d]pyridazin-5-yl]acetate]	50 nM	10 nM	25000 nM	–	–
CCCOC(=O)C(c1cc(-c2ccc(C3CC3)cc2C(F)(F)F)no1)n1cc2nc(-c3cccc(F)c3F)nc-2cn1 (stereo not shown) [Compound 184, Propyl {3-[4-cyclopropyl-2-(trifluoromethyl)phenyl]-5-isoxazolyl}[2-(2,3-difluorophenyl)-5H-imidazo[4,5-d]pyridazin-5-yl]acetate]	79 nM	13 nM	25000 nM	–	–
O=C(OCCOCCO)C(c1cc(-c2ccc(C3CC3)cc2C(F)(F)F)no1)n1cc2nc(-c3cccc(F)c3F)nc-2cn1 (stereo not shown) [Compound 179, 2-[(2-hydroxyethyl)oxy]ethyl {3-[4-cyclopropyl-2-(trifluoromethyl)phenyl]-5-isoxazolyl}[2-(2,3-difluorophenyl)-5H-imidazo[4,5-d]pyridazin-5-yl]acetate]	79 nM	13 nM	50000 nM	–	–
CCCOc1ccc(-c2ncc(C(C(=O)OC)n3cc4nc(-c5cccc(F)c5F)nc-4cn3)cn2)c(C(F)(F)F)c1 (stereo not shown) [Compound 58, Methyl [2-(2,3-difluorophenyl)-5H-imidazo[4,5-d]pyridazin-5-yl]{2-[4-(propyloxy)-2-(trifluoromethyl)phenyl]-5-pyrimidinyl}acetate]	–	–	–	2600 nM	270 nM
CCCOc1ccc(-c2cc(C(C(=O)OCCCOS(=O)(=O)O)n3cc4nc(-c5cccc(F)c5F)nc-4cn3)on2)c(C(F)(F)F)c1 (stereo not shown) [Compound 15, 3-(Sulfooxy)propyl [2-(2,3-difluorophenyl)-5H-imidazo[4,5-d]pyridazin-5-yl]{3-[4-(propyloxy)-2-(trifluoromethyl)phenyl]-5-isoxazolyl}acetate sodium salt]	–	–	–	14 nM	2 nM

Reference: US20110052534A1, “Imidazopyridazine Compounds for Treating Viral Infections” (priority 2009, published 2011)
